Literature values, collected in US5597804A, “N-sulfonylarginine keto-amide compounds” (Corvas International, Inc., priority 1993, dated 1997).
pKi: −log10 of the molar value.

Legend:
Details in all cases: reported by Ocain et al.; read-out: inhibitor constant
[1] = target: T1, microsomal aminopeptidase (Sus scrofa, UniProt P15145)
T1 sequence (P15145 1-963): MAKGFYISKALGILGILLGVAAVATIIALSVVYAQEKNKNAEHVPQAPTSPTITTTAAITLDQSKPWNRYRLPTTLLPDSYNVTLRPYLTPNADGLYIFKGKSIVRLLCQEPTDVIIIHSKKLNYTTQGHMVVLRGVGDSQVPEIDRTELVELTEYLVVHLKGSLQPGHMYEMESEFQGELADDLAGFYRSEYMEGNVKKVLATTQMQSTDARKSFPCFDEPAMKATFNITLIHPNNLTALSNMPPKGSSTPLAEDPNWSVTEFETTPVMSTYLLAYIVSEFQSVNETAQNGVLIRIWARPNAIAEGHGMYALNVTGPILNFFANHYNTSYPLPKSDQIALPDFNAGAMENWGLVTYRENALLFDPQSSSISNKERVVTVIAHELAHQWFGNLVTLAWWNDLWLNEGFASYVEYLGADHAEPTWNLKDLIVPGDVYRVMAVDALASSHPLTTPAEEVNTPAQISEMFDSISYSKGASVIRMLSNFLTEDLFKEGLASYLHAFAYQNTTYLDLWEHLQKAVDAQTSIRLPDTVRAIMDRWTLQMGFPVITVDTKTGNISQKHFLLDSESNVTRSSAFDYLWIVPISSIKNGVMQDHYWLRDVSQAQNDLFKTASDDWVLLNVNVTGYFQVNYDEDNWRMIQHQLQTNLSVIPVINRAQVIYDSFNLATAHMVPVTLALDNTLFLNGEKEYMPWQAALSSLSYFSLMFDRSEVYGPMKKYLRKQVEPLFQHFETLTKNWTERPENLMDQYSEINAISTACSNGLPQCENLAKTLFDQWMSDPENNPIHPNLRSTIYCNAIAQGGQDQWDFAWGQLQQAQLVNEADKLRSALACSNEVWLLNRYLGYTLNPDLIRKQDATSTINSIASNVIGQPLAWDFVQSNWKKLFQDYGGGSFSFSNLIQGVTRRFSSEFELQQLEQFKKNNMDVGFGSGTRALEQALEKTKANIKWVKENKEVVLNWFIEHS

cytosol aminopeptidase = target: cytosol aminopeptidase
arginyl aminopeptidase = target: arginyl aminopeptidase

pKi [1]: 2.60
pKi (cytosol aminopeptidase): 3.00
pKi (arginyl aminopeptidase): 2.82
Structure (SMILES): NC(=O)C(=O)C(N)Cc1ccccc1 (stereo not drawn) [3-Amino-2-oxo-4-phenylbutanoic acid amide]
